# According to patent US10017741B2, “Compositions and methods for obtaining enriched mesenchymal stem cell cultures” (StemCell Technologies Inc., priority 2013, dated 2018):
# “Also recorded” adds a separate entry of the source.
# Tested on: CB-derived cultures (macrophage contamination, MSC morphology)
# Experiment: Images of CB-derived expansion cultures
# Type: cell-based, mouse
# Conditions: for macrophage contamination and MSC enrichment (images): CB
# Method: c. Expansion of Human BM and Mouse BM and CB-Derived Cells Assay • 1. […] Cultures were allowed to grow for 10-14 days until adherent cells achieved 70 to 80% confluence. Mouse cultures were maintained under normal (5% CO2) or hypoxic conditions (5% CO2/5% O2) at 37 C in a cell culture incubator. Human cultures were maintained under 5% CO2 at 37 C in a humidified cell culture incubator. • 3. Adherent cells were passaged by releasing cultures from flask. Cultures were washed with 5 mL PBS and then 5 mL of 0.25% trypsin solution ([…] catalogue #07901) was added and the flasks incubated for 10 min at 37 C. To each flask, 5 mL complete medium was added to stop trypsin activity. • 4. Released cells were collected into a tube and centrifuged at 300×g for 5 minutes. • 5. Cells were resuspended in 2 mL of medium and counted using a hemocytometer. • 6. […] P1 cultures were incubated until they reached 70 to 80% confluence. • 8. Passaged cultures can be used at any time from P0 to P10 as needed for different applications.
compound,measurement,setting,value
"COc1ccc(COc2ccc(Cc3cnc(N)nc3N)cc2OC)cc1 [GW2580, 5-(3-Methoxy-4-((4-methoxybenzyl)oxy)benzyl)pyrimidine-2,4-diamine]",macrophage contamination and MSC enrichment (images),1 μM continuous P0-P3,have reduced numbers of macrophages; also recorded: contain a much reduced number of these contaminating macrophages
same,macrophage contamination and MSC enrichment (images),"1 μM, P2",a much reduced number of macrophages is observed; also recorded: enriched and mostly devoid of macrophage contamination
same,macrophage contamination and MSC appearance (images),"CB, 1, 5 and 10 μM",have reduced numbers of contaminating macrophages; also recorded: a noticeable decrease in macrophages was noticed
